Results taken from patent publication US5753673A, “Quinolinecarboxylic acid derivatives” (Taisho Pharmaceutical Co., Ltd., priority 1994, dated 1998).

How the values were obtained:
[1] = system: gastrointestinal motor function; conditions: TALLEY, N. J., 1992; cited from earlier work
5-HT1A receptor = target: T1, 5-HT1A receptor (Rattus norvegicus, UniProt P19327); assay: Selectivity for receptors: 5-HT1A receptor, inhibition of [^3 H] 8-OH-DPAT binding to rat cerebral cortex membrane
T1 construct: The rat cerebral cortex was homogenized in 50 mM Tris hydrochloride buffer; from tissue; host or cells: rat cerebral cortex membranes
T1 sequence (P19327 1-422): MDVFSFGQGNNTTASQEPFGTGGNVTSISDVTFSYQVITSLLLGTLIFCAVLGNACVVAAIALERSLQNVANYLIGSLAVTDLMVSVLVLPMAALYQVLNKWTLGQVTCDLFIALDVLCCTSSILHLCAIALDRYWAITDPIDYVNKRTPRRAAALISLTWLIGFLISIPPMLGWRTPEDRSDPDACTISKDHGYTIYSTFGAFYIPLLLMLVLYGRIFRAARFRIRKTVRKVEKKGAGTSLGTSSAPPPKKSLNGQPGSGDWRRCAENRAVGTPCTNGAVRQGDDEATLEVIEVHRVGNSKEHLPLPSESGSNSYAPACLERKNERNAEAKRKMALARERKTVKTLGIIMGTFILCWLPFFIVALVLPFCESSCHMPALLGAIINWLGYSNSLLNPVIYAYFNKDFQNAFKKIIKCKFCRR
Description: The selectivity for receptors of the quinolinecarboxylic acid derivatives of the present invention was examined by the following method.
The affinity to serotonin 1A (5-HT1A) receptor was examined by the method described in […], J. R. et al., Biochem. Pharmacol., 12, 1943-1949 (1986).
The affinity to serotonin 1A (5-HT1A) was examined in terms of inhibition of [^3 H] 8-OH-DPAT (Daiichi Kagaku Yakuhin Co.) binding to rat cerebral cortex membrane. The rat cerebral cortex was homogenized in 50 mM Tris hydrochloride buffer (pH 7.4) followed by centrifugation at 48,000 G.
The pellet was washed once with Tris hydrochloride buffer. Then the pellet was suspended in 50 mM Tris hydrochloride buffer (supplemented with 0.01 mM pargyline and 0.1% ascorbic acid, pH 7.7) and provided for use as the membrane preparation. The membrane specimen was reacted with 1 nM [^3 H] 8-OH-DPAT at 37° C. for 15 minutes. After the reaction, the membrane was caught by a harvester. Non-specific binding was defined as that taken in the presence of 10 μM 5-HT.

SMILES | effect on gastrointestinal motor function and conditions [1] | IC50 (5-HT1A receptor) [nM]
COc1cc(N)c(Cl)cc1C(=O)NC1CCN2CCCC1C2 (stereo not drawn) [renzapride] | accelerate the gastrointestinal motor function and improve the gastrointestinal conditions | –
COc1cc(N)c(Cl)cc1C(=O)N[C@@H]1CCN(CCCOc2ccc(F)cc2)C[C@@H]1OC (relative stereo) [Comparative Compound 1, Cisapride, reference compound] | accelerate the gastrointestinal motor function and improve the gastrointestinal conditions | 64.7
